# According to patent publication US12194080B2, “Methods for identification, assessment, prevention, and treatment of metabolic disorders using PM20D1 and N-lipidated amino acids” (Dana-Farber Cancer Institute, Inc., priority 2015, dated 2025):
# Assays:
# [1] = tested on: primary inguinal fat cells, primary BAT cells, C2C12 cells, and U2OS cells; assay: Uncoupled respiration cellular assays (variety of cell types); assay type: cell-based; details: N-acyl amino acids at 10-100 uM
# Procedure: (§1) Cellular oxygen consumption rates were determined using an XF24 Extracellular Flux Analyzer (Seahorse Biosciences). Oligomycin was purchased from EMD Millipore, and FCCP and rotenone were purchased from Sigma. C2C12 or U2OS cells were seeded at 30,000 or 50,000 cells/well, respectively in an XF24 cell culture microplate (V7-PS, Seahorse Bioscience) and analyzed the following day. Primary iWAT or BAT adipocytes were seeded at 15,000 cells/well, differentiation was induced the following day as described, and the cells were analyzed on day 5. On the day of analysis, the cells were washed once with Seahorse respiration buffer (8.3 g/1 DMEM, 1.8 g/l NaCl, 1 mM pyruvate, 20 mM glucose, pen/strep), placed in 0.5 ml Seahorse respiration buffer, and incubated in a CO2-free incubator for 1 hr. Port injection solutions were prepared as follows (final concentrations in assay in parentheses): 10 μM oligomycin (1 μM final), […] amino acid (50 μM final), 2 μM FCCP (0.2 μM final), and 30 μM rotenone (3 μM final). The Seahorse program was run as follows: basal measurement, 3 cycles; inject port A (oligomycin), 3 cycles; inject port B (compounds), 8 cycles; inject port C (FCCP), 3 cycles; inject port D (rotenone), 3 cycles. Each cycle consisted of mix 4 min, wait 0 min, and measure 2 min. For data expressed as a percentage of oligomycin-treated basal, the respiration at cycle 6 was normalized to 100%, and the maximum respiration at any time point between cycles 7 and 15 inclusive was used.
# [2] = target: T1, mouse PM20D1 (Mus musculus, UniProt Q8C165); assay: In vitro PM20D1-catalyzed synthesis of N-acyl amino acids; assay type: biochemical; details: head group 100 μM; oleate or arachidonate 1.5 mM, C18:1-CoA 0.7 mM
# T1 construct: Full-length mouse Pm20d1 cDNA (GE Dharmacon) was subcloned with an in-frame C-terminal 6× His and FLAG® tag; made in house; host or cells: 293A (HEK293A) cells stably infected with retrovirus
# T1 sequence (Q8C165 25-503): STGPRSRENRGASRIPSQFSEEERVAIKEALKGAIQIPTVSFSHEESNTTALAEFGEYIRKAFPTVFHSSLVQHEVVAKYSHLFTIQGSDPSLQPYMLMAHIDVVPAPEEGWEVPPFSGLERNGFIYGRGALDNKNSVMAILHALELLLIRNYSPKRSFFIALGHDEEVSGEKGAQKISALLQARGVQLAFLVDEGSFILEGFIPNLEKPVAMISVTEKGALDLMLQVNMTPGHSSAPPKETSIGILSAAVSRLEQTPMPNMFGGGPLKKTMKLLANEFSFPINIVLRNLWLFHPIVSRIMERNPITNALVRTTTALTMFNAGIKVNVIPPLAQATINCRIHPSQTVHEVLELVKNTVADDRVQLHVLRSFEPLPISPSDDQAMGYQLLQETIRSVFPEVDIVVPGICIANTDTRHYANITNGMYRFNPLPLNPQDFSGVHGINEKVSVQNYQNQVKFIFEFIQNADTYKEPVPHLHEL
# Procedure: (§2) The concentrated media was centrifuged to remove debris (600×g, 10 min, 4° C.) and the supernatant containing PM20D1-flag was decanted into a new tube. PM20D1-Flag was immunoaffinity purified overnight at 4° C. from the concentrated media using magnetic Flag-M2 beads (Sigma Aldrich). The beads were collected, washed three times in PBS, eluted with 3× Flag peptide ([…] in PBS, Sigma Aldrich), aliquoted, and stored at −80° C. For the purification of human PM20D1-flag, hPM20D1-flag plasmid (Origene) was transiently transfected into 293A cells. After two days, the media was changed, harvested 24 h later, concentrated, and purified exactly as described above.
# (§3) In vitro PM20D1-catalyzed synthesis of N-acyl amino acids was measured by incubating purified PM20D1 protein with oleate (1.5 mM) and phenylalanine (0.1 mM) in PBS (to 100 μl final volume) at 37° C. for 1.5 hrs. In vitro PM20D1-catalyzed N-acyl amino acid hydrolysis was measured by incubating purified PM20D1 protein with the indicated N-acyl amino acid (0.1 mM) in PBS (to 100 μl final volume) at 37° C. for 1.5 hrs. Reactions were terminated by placing the vials at −80° C. and the products generated in vitro were analyzed by mass spectroscopy (MS).
# (§4) Briefly, frozen serum (30 μl) for polar metabolomic analyses were extracted in 160 μl of 1:1 acetonitrile/methanol with inclusion of internal standard D3, ^15N-serine (1 nmol). Activity assays (100 μl) were extracted in 400 μl 1:1 acetonitrile/methanol. Following 30 s of thorough vortexing and 1 min of bath sonication, the polar metabolite fraction (supernatant) was isolated by centrifugation at 13,000×g for 10 min. Ten μl of this supernatant was analyzed by SRM-based targeted LC-MS/MS, or untargeted LC-MS.
# (§5) For separation of polar metabolites, normal-phase chromatography was performed with a […] column (50 mm×4.60 mm, Phenomenex). Mobile phases were as follows: Buffer A, acetonitrile; Buffer B, 95:5 water/acetonitrile with 0.1% formic acid or 0.2% ammonium hydroxide with 50 mM ammonium acetate for positive and negative ionization mode, respectively. The flow rate for each run started at 0.2 ml/min for 2 min, followed by a gradient starting at 0% B and increasing linearly to 100% B over the course of 15 min with a flow rate of 0.7 ml/min, followed by an isocratic gradient of 100% B for 10 min at 0.7 ml/min before equilibrating for 5 min at 0% B with a flow rate of 0.7 ml/min. MS analysis was performed with an electrospray ionization (ESI) source on an Agilent 6430 QQQ LC—MS/MS. The capillary voltage was set to 3.5 kV, and the fragmentor voltage was set to 100 V. The drying gas temperature was 325° C., the drying gas flow rate was 10 l/min, and the nebulizer pressure was 45 psi. For polar targeted and untargeted metabolomic analysis, representative metabolites were quantified by SRM of the transition from precursor to product ions (corresponding to amino acid fragment) at associated collision energies. Several representative fragmentation ions are as follows: C18:1-Ala, 352>88; C18:1-Gly, 338>74; C18:1-Phe, 428>164; C18:1-Leu/Ile, 394>130; C20:4-Phe, 450>164; C20:4-Leu/Ile, 416>130. Untargeted LC-MS was performed by scanning a mass range of m/z 50-1200, and data were exported as mzdata files and uploaded to XCMSOnline (xcmsserver.nutr.berkeley.edu) to identify metabolites that were differentially changed. For targeted metabolomics analysis, metabolites were quantified by integrating the area under the peak and were normalized to internal standard values corresponding to 1 nmol D3, ^15N-serine.
# [3] = tested on: Diet induced obese (DIO) mice; assay: Chronic daily i.p. administration of N-acyl amino acids to DIO mice (body weight, food intake, body composition, GTT); assay type: in vivo, mouse; details: for body weight lost: after 8 days treatment, mean±SEM
# Procedure: (§6) Animal experiments were performed according to procedures approved by the Beth Israel Deaconess Medical Center IACUC. Mice were maintained in 12 h light-dark cycles at 22° C. and fed a standard irradiated rodent chow diet. All experiments on wild-type mice were performed with male C57BL/6 mice purchased from Jackson Laboratories, except for the AAV experiments, which were performed with male C57BL/6 mice from Charles River. UCP1-KO (stock #017476) and 16-20 week DIO mice (stock #380050) were obtained from Jackson Laboratories. For AAV injection experiments, mice were gently warmed using a 250 W clear infrared heat lamp, immobilized, and injected via tail vein with 10^10 virus/mouse (diluted in saline) in a total volume of 100 μl/mouse. Where indicated, mice were placed on high-fat diet (60% fat, Research Diets). For cold exposure experiments, mice were group housed and placed at 4° C. for the indicated times. For the preparation of C18:1-Phe for in vivo injections, compounds were dissolved in 18:1:1 v/v/v saline:Kolliphor® EL (Sigma Aldrich):DMSO and sonicated until homogeneous. Mice were administered compounds at 5 μl/g body weight at the indicated doses. For all injection experiments, mice were mock injected with saline daily for 3 days prior to the start of the experiments. For glucose tolerance tests (GTTs), mice received their final dose of compound the day prior to the assay and were then fasted overnight. Glucose was administered at 1.5 g/kg.
# (§7) Energy expenditure, O2 consumption, CO2 production, respiratory exchange ratio, total locomotor activity, and food intake measurements were made with a 16-cage Columbus Instruments Oxymax Comprehensive Lab Animal Monitoring System (CLAMS) at ambient room temperature (21-23° C.). Mice were acclimated for one day in metabolic cages prior to data collection. Whole-body composition was assessed with an EchoMRI™ 3-in-1 on conscious mice.
# [4] = tested on: differentiated primary iWAT cells; assay: Cellular oxygen consumption rate (Seahorse XF24), differentiated primary iWAT adipocytes; assay type: cell-based, mouse; details: 50 μM, in presence of oligomycin; control fatty acid
# Procedure: (§8) C2C12, U2O5, and 293A cells were cultured in DMEM with 10% FBS and pen/strep. Primary inguinal (iWAT) and brown (BAT) adipocytes were obtained as follows. The stromal-vascular fraction of inguinal (iWAT) pad from 4-12 week old male mice was dissected, minced, and digested for 45 min. at 37° C. in PBS containing 10 mM CaCl2, 2.4 U/ml dispase II (Roche), and 1.5 U/ml collagenase D (Roche). The stromal-vascular fraction of brown fat (BAT) pads from newborn (P1-P14) pups was dissected, minced, and digested for 45 min at 37° C. in PBS containing 1.3 mM CaCl2, 120 mM NaCl, 5 mM KCl, 5 mM glucose, 100 mM HEPES, 4% BSA, and 1.5 mg/ml collagenase B (Roche). Digested tissue was diluted with adipocyte culture media (DMEM/F-12, GlutaMAX™ supplement, Life Technologies, with 10% FBS and pen/strep) and centrifuged (600×g for 10 min.). The pellet was resuspended in 10 ml adipocyte culture media, strained through a 40 μm filter, and plated. Differentiation was induced by application of an adipogenic cocktail containing 5 μg/ml insulin (Sigma), 5 μM dexamethasone (Sigma), 250 μM isobutylmethylxanthine (Sigma), and 1 μM rosiglitazone (Cayman) for 2 days. Two days after induction, cells were maintained in adipocyte culture media containing 5 μg/ml insulin and 1 μM rosiglitazone.
# as §1
# [5] = target: T1, mouse PM20D1; assay: In vitro PM20D1-catalyzed N-acyl amino acid hydrolysis; assay type: biochemical; details: N-acyl amide substrate 100 μM
# Procedure: as §2, §3, §4, §5
# [6] = tested on: U2OS cells; assay: Cellular oxygen consumption rate (uncoupled respiration), U2OS cells; assay type: cell-based, human; details: 50 μM, after oligomycin 1 μM
# Procedure: as §8, §1
# [7] = tested on: C2C12 cells; assay: Cellular oxygen consumption rate (uncoupled respiration), C2C12 cells; assay type: cell-based, mouse; details: 50 μM, after oligomycin 1 μM
# Procedure: as §8, §1
# [8] = tested on: Diet induced obese (DIO) mice; assay: Indirect calorimetry (CLAMS) of high fat diet/DIO mice treated with N-acyl amino acids; assay type: in vivo, mouse
# Procedure: as §6, §7
# [9] = daily i.p.: C18:1-Leu 25, C18:1-Phe 30, C20:4-Gly 15 mg/kg/day
smiles,measurement,setting,value
"CCCCCCCC/C=C\CCCCCCCC(=O)[O-].[Na+] [oleate, sodium oleate, reference compound]",uncoupled respiration in cells,[1],inactive
same,substrate of the PM20D1 synthase reaction,[2],strong preference for free oleate over oleoyl-coenzyme A
same,body weight lost,"[3]; 25 mg/kg, i.p., daily",0.3 ± 0.2 g
"CCCCC/C=C\C/C=C\C/C=C\C/C=C\CCCC(=O)O [arachidonate, arachidonic acid, reference compound]",oxygen consumption rate,[4],increased the oxygen consumption rate very modestly
same,substrate of the PM20D1 synthase reaction,[2],capable of using arachidonate as a fatty acid donor
"CCCCCCCC/C=C\CCCCCCCC(=O)NCCO [N-oleoyl ethanolamine, reference compound]",uncoupled respiration in cells,[1],inactive
same,substrate of the PM20D1 hydrolysis reaction,[5],does not hydrolyze
same,substrate of the PM20D1 hydrolysis reaction,[5]; listed as C18:1-EA,not a PM20D1 substrate
"CCCCCCCCCCCC(=O)N[C@@H](Cc1ccccc1)C(=O)O [N-lauroyl phenylalanine, Dodecanoyl-L-phenylalanine]",uncoupling activity (uncoupled respiration),[6],completely lacked uncoupling activity
same,uncoupled respiration in cells,[1],inactive
"CCCCCCCCCCCCCCCCCC(=O)N[C@@H](Cc1ccccc1)C(=O)O [N-stearoyl phenylalanine, Stearoyl-L-phenylalanine]",uncoupling activity (uncoupled respiration),[6],possessed uncoupling activity
same,uncoupled respiration in cells,[1],increased uncoupled respiration
"CCCCCCCC/C=C\CCCCCCCC(=O)N[C@@H](CC(C)C)C(=O)O [C18:1-Leu, Oleoyl-L-leucine]",uncoupling activity (uncoupled respiration),[7],significantly more potent than the free fatty acid alone
same,reduction of food intake versus vehicle-treated mice,"[3]; 25 mg/kg, i.p., daily",17%
same,body weight lost,"[3]; 25 mg/kg, i.p., daily",4.1 ± 0.3 g
same,body composition analysis (weight loss),"[3]; 25 mg/kg/day i.p., MRI",entirely accounted for by a difference in fat mass
same,GTT,"[3]; 25 mg/kg/day i.p., glucose 1.5 g/kg, versus vehicle- or oleate-treated mice",improvements
same,RER,[8]; C18:1-Leu 25 mg/kg/day i.p.,significantly lower
same,VCO2,[8]; C18:1-Leu 25 mg/kg/day i.p.,significantly augmented
same,food intake over the final two days of the experiment,"[8]; C18:1-Leu 25 mg/kg/day i.p., metabolic cages",reduced food intake
same,VO2,[8]; [9],significantly augmented
same,movement,[8]; [9],slightly reduced
"CCCCCCCCCCCCCCCC(=O)N[C@@H](Cc1ccccc1)C(=O)O [N-palmitoyl phenylalanine, Palmitoyl-L-phenylalanine]",uncoupling activity (uncoupled respiration),[6],possessed uncoupling activity
same,uncoupled respiration in cells,[1],increased uncoupled respiration
